Measured values reported in ChEMBL document CHEMBL1671643, “Relative strengths of the class 1 integron promoter hybrid 2 and the combinations of strong and hybrid 1 with an active p2 promoter” (2009).
Converted amounts (≈) assume the structure as drawn.

Each molecule was assayed on Escherichia coli (assay: Antimicrobial activity against Escherichia coli MC4100 harboring a weak promoter in beta-lactamase GES-1 by Etest).
Type: functional

Row | Compound | MIC [µg/mL]
1 | CC1(C)S[C@@H]2[C@H](NC(=O)[C@H](N)c3ccc(O)cc3)C(=O)N2[C@H]1C(=O)O [AMOXICILLIN] | > 256
2 | C[C@H]1[C@H](NC(=O)/C(=N\OC(C)(C)C(=O)O)c2csc(N)n2)C(=O)N1S(=O)(=O)O [AZTREONAM] | 0.047 (≈ 0.108 µM)
3 | N[C@@H](C(=O)N[C@@H]1C(=O)N2C(C(=O)O)=C(Cl)CS[C@H]12)c1ccccc1 [CEFACLOR ANHYDROUS] | 6 (≈ 16.3 µM)
4 | CO/N=C(\C(=O)N[C@@H]1C(=O)N2C(C(=O)[O-])=C(C[N+]3(C)CCCC3)CS[C@H]12)c1csc(N)n1 [CEFEPIME] | 0.032 (≈ 0.0666 µM)
5 | CC(C)(O/N=C(\C(=O)N[C@@H]1C(=O)N2C(C(=O)[O-])=C(C[n+]3ccccc3)CS[C@H]12)c1csc(N)n1)C(=O)O [CEFTAZIDIME] | 0.75 (≈ 1.37 µM)
6 | CO/N=C(\C(=O)N[C@@H]1C(=O)N2C(C(=O)O)=C(COC(N)=O)CS[C@H]12)c1ccco1 [CEFUROXIME] | 8 (≈ 18.9 µM)
7 | CCN1CCN(C(=O)N[C@@H](C(=O)N[C@@H]2C(=O)N3[C@@H]2SC(C)(C)[C@@H]3C(=O)O)c2ccccc2)C(=O)C1=O [PIPERACILLIN] | 2 (≈ 3.86 µM)

The molecules below were run on Escherichia coli (assay: Antimicrobial activity against Escherichia coli MC4100 harboring strong promoter in beta-lactamase GES-1 by Etest).
Type: functional

Row | Compound | MIC [µg/mL]
8 | CC1(C)S[C@@H]2[C@H](NC(=O)[C@H](N)c3ccc(O)cc3)C(=O)N2[C@H]1C(=O)O [AMOXICILLIN] | > 256
9 | C[C@H]1[C@H](NC(=O)/C(=N\OC(C)(C)C(=O)O)c2csc(N)n2)C(=O)N1S(=O)(=O)O [AZTREONAM] | 0.19 (≈ 0.436 µM)
10 | N[C@@H](C(=O)N[C@@H]1C(=O)N2C(C(=O)O)=C(Cl)CS[C@H]12)c1ccccc1 [CEFACLOR ANHYDROUS] | 256 (≈ 696 µM)
11 | CO/N=C(\C(=O)N[C@@H]1C(=O)N2C(C(=O)[O-])=C(C[N+]3(C)CCCC3)CS[C@H]12)c1csc(N)n1 [CEFEPIME] | 0.19 (≈ 0.395 µM)
12 | CC(C)(O/N=C(\C(=O)N[C@@H]1C(=O)N2C(C(=O)[O-])=C(C[n+]3ccccc3)CS[C@H]12)c1csc(N)n1)C(=O)O [CEFTAZIDIME] | 12 (≈ 22 µM)
13 | CO/N=C(\C(=O)N[C@@H]1C(=O)N2C(C(=O)O)=C(COC(N)=O)CS[C@H]12)c1ccco1 [CEFUROXIME] | > 256
14 | CCN1CCN(C(=O)N[C@@H](C(=O)N[C@@H]2C(=O)N3[C@@H]2SC(C)(C)[C@@H]3C(=O)O)c2ccccc2)C(=O)C1=O [PIPERACILLIN] | 24 (≈ 46.4 µM)

The molecules below were run on Escherichia coli (assay: Antimicrobial activity against Escherichia coli MC4100 harboring promoter hybrid 1 in beta-lactamase GES-1 by Etest).
Type: functional

Row | Compound | MIC [µg/mL]
15 | CC1(C)S[C@@H]2[C@H](NC(=O)[C@H](N)c3ccc(O)cc3)C(=O)N2[C@H]1C(=O)O [AMOXICILLIN] | > 256
16 | C[C@H]1[C@H](NC(=O)/C(=N\OC(C)(C)C(=O)O)c2csc(N)n2)C(=O)N1S(=O)(=O)O [AZTREONAM] | 0.047 (≈ 0.108 µM)
17 | N[C@@H](C(=O)N[C@@H]1C(=O)N2C(C(=O)O)=C(Cl)CS[C@H]12)c1ccccc1 [CEFACLOR ANHYDROUS] | 8 (≈ 21.8 µM)
18 | CO/N=C(\C(=O)N[C@@H]1C(=O)N2C(C(=O)[O-])=C(C[N+]3(C)CCCC3)CS[C@H]12)c1csc(N)n1 [CEFEPIME] | 0.064 (≈ 0.133 µM)
19 | CC(C)(O/N=C(\C(=O)N[C@@H]1C(=O)N2C(C(=O)[O-])=C(C[n+]3ccccc3)CS[C@H]12)c1csc(N)n1)C(=O)O [CEFTAZIDIME] | 1.5 (≈ 2.74 µM)
20 | CO/N=C(\C(=O)N[C@@H]1C(=O)N2C(C(=O)O)=C(COC(N)=O)CS[C@H]12)c1ccco1 [CEFUROXIME] | 32 (≈ 75.4 µM)
21 | CCN1CCN(C(=O)N[C@@H](C(=O)N[C@@H]2C(=O)N3[C@@H]2SC(C)(C)[C@@H]3C(=O)O)c2ccccc2)C(=O)C1=O [PIPERACILLIN] | 4 (≈ 7.73 µM)

The molecules below were run on Escherichia coli (assay: Antimicrobial activity against Escherichia coli MC4100 harboring promoter hybrid 2 in beta-lactamase GES-1 by Etest).
Type: functional

Row | Compound | MIC [µg/mL]
22 | CC1(C)S[C@@H]2[C@H](NC(=O)[C@H](N)c3ccc(O)cc3)C(=O)N2[C@H]1C(=O)O [AMOXICILLIN] | > 256
23 | C[C@H]1[C@H](NC(=O)/C(=N\OC(C)(C)C(=O)O)c2csc(N)n2)C(=O)N1S(=O)(=O)O [AZTREONAM] | 0.094 (≈ 0.216 µM)
24 | N[C@@H](C(=O)N[C@@H]1C(=O)N2C(C(=O)O)=C(Cl)CS[C@H]12)c1ccccc1 [CEFACLOR ANHYDROUS] | 24 (≈ 65.3 µM)
25 | CO/N=C(\C(=O)N[C@@H]1C(=O)N2C(C(=O)[O-])=C(C[N+]3(C)CCCC3)CS[C@H]12)c1csc(N)n1 [CEFEPIME] | 0.125 (≈ 0.26 µM)
26 | CC(C)(O/N=C(\C(=O)N[C@@H]1C(=O)N2C(C(=O)[O-])=C(C[n+]3ccccc3)CS[C@H]12)c1csc(N)n1)C(=O)O [CEFTAZIDIME] | 4 (≈ 7.32 µM)
27 | CO/N=C(\C(=O)N[C@@H]1C(=O)N2C(C(=O)O)=C(COC(N)=O)CS[C@H]12)c1ccco1 [CEFUROXIME] | 128 (≈ 302 µM)
28 | CCN1CCN(C(=O)N[C@@H](C(=O)N[C@@H]2C(=O)N3[C@@H]2SC(C)(C)[C@@H]3C(=O)O)c2ccccc2)C(=O)C1=O [PIPERACILLIN] | 12 (≈ 23.2 µM)

These molecules were tested on Escherichia coli (assay: Antimicrobial activity against Escherichia coli MC4100 harboring weak promoter and active promoter P2 in beta-lactamase GES-1 by Etest).
Type: functional

Row | Compound | MIC [µg/mL]
29 | CC1(C)S[C@@H]2[C@H](NC(=O)[C@H](N)c3ccc(O)cc3)C(=O)N2[C@H]1C(=O)O [AMOXICILLIN] | > 256
30 | C[C@H]1[C@H](NC(=O)/C(=N\OC(C)(C)C(=O)O)c2csc(N)n2)C(=O)N1S(=O)(=O)O [AZTREONAM] | 0.094 (≈ 0.216 µM)
31 | N[C@@H](C(=O)N[C@@H]1C(=O)N2C(C(=O)O)=C(Cl)CS[C@H]12)c1ccccc1 [CEFACLOR ANHYDROUS] | 24 (≈ 65.3 µM)
32 | CO/N=C(\C(=O)N[C@@H]1C(=O)N2C(C(=O)[O-])=C(C[N+]3(C)CCCC3)CS[C@H]12)c1csc(N)n1 [CEFEPIME] | 0.094 (≈ 0.196 µM)
33 | CC(C)(O/N=C(\C(=O)N[C@@H]1C(=O)N2C(C(=O)[O-])=C(C[n+]3ccccc3)CS[C@H]12)c1csc(N)n1)C(=O)O [CEFTAZIDIME] | 4 (≈ 7.32 µM)
34 | CO/N=C(\C(=O)N[C@@H]1C(=O)N2C(C(=O)O)=C(COC(N)=O)CS[C@H]12)c1ccco1 [CEFUROXIME] | 96 (≈ 226 µM)
35 | CCN1CCN(C(=O)N[C@@H](C(=O)N[C@@H]2C(=O)N3[C@@H]2SC(C)(C)[C@@H]3C(=O)O)c2ccccc2)C(=O)C1=O [PIPERACILLIN] | 12 (≈ 23.2 µM)

Each molecule was assayed on Escherichia coli (assay: Antimicrobial activity against Escherichia coli MC4100 harboring strong promoter and active promoter P2 in beta-lactamase GES-1 by Etest).
Type: functional

Row | Compound | MIC [µg/mL]
36 | CC1(C)S[C@@H]2[C@H](NC(=O)[C@H](N)c3ccc(O)cc3)C(=O)N2[C@H]1C(=O)O [AMOXICILLIN] | > 256
37 | C[C@H]1[C@H](NC(=O)/C(=N\OC(C)(C)C(=O)O)c2csc(N)n2)C(=O)N1S(=O)(=O)O [AZTREONAM] | 0.25 (≈ 0.574 µM)
38 | N[C@@H](C(=O)N[C@@H]1C(=O)N2C(C(=O)O)=C(Cl)CS[C@H]12)c1ccccc1 [CEFACLOR ANHYDROUS] | 256 (≈ 696 µM)
39 | CO/N=C(\C(=O)N[C@@H]1C(=O)N2C(C(=O)[O-])=C(C[N+]3(C)CCCC3)CS[C@H]12)c1csc(N)n1 [CEFEPIME] | 0.19 (≈ 0.395 µM)
40 | CC(C)(O/N=C(\C(=O)N[C@@H]1C(=O)N2C(C(=O)[O-])=C(C[n+]3ccccc3)CS[C@H]12)c1csc(N)n1)C(=O)O [CEFTAZIDIME] | 16 (≈ 29.3 µM)
41 | CO/N=C(\C(=O)N[C@@H]1C(=O)N2C(C(=O)O)=C(COC(N)=O)CS[C@H]12)c1ccco1 [CEFUROXIME] | > 256
42 | CCN1CCN(C(=O)N[C@@H](C(=O)N[C@@H]2C(=O)N3[C@@H]2SC(C)(C)[C@@H]3C(=O)O)c2ccccc2)C(=O)C1=O [PIPERACILLIN] | 24 (≈ 46.4 µM)

These molecules were tested on Escherichia coli (assay: Antimicrobial activity against Escherichia coli MC4100 harboring promoter hybrid 1 and active promoter P2 in beta-lactamase GES-1 by Etest).
Type: functional

Row | Compound | MIC [µg/mL]
43 | CC1(C)S[C@@H]2[C@H](NC(=O)[C@H](N)c3ccc(O)cc3)C(=O)N2[C@H]1C(=O)O [AMOXICILLIN] | > 256
44 | C[C@H]1[C@H](NC(=O)/C(=N\OC(C)(C)C(=O)O)c2csc(N)n2)C(=O)N1S(=O)(=O)O [AZTREONAM] | 0.125 (≈ 0.287 µM)
45 | N[C@@H](C(=O)N[C@@H]1C(=O)N2C(C(=O)O)=C(Cl)CS[C@H]12)c1ccccc1 [CEFACLOR ANHYDROUS] | 24 (≈ 65.3 µM)
46 | CO/N=C(\C(=O)N[C@@H]1C(=O)N2C(C(=O)[O-])=C(C[N+]3(C)CCCC3)CS[C@H]12)c1csc(N)n1 [CEFEPIME] | 0.125 (≈ 0.26 µM)
47 | CC(C)(O/N=C(\C(=O)N[C@@H]1C(=O)N2C(C(=O)[O-])=C(C[n+]3ccccc3)CS[C@H]12)c1csc(N)n1)C(=O)O [CEFTAZIDIME] | 6 (≈ 11 µM)
48 | CO/N=C(\C(=O)N[C@@H]1C(=O)N2C(C(=O)O)=C(COC(N)=O)CS[C@H]12)c1ccco1 [CEFUROXIME] | 256 (≈ 603 µM)
49 | CCN1CCN(C(=O)N[C@@H](C(=O)N[C@@H]2C(=O)N3[C@@H]2SC(C)(C)[C@@H]3C(=O)O)c2ccccc2)C(=O)C1=O [PIPERACILLIN] | 16 (≈ 30.9 µM)

What follows are molecules tested on Escherichia coli (assay: Antimicrobial activity against Escherichia coli MC4100 expressing promoterless beta-lactamase GES-1 by Etest).
Type: functional

Row | Compound | MIC [µg/mL]
50 | CC1(C)S[C@@H]2[C@H](NC(=O)[C@H](N)c3ccc(O)cc3)C(=O)N2[C@H]1C(=O)O [AMOXICILLIN] | 4 (≈ 10.9 µM)
51 | N[C@@H](C(=O)N[C@@H]1C(=O)N2C(C(=O)O)=C(Cl)CS[C@H]12)c1ccccc1 [CEFACLOR ANHYDROUS] | 1.5 (≈ 4.08 µM)
52 | CO/N=C(\C(=O)N[C@@H]1C(=O)N2C(C(=O)[O-])=C(C[N+]3(C)CCCC3)CS[C@H]12)c1csc(N)n1 [CEFEPIME] | 0.032 (≈ 0.0666 µM)
53 | CC(C)(O/N=C(\C(=O)N[C@@H]1C(=O)N2C(C(=O)[O-])=C(C[n+]3ccccc3)CS[C@H]12)c1csc(N)n1)C(=O)O [CEFTAZIDIME] | 0.064 (≈ 0.117 µM)
54 | CO/N=C(\C(=O)N[C@@H]1C(=O)N2C(C(=O)O)=C(COC(N)=O)CS[C@H]12)c1ccco1 [CEFUROXIME] | 2 (≈ 4.71 µM)
55 | CCN1CCN(C(=O)N[C@@H](C(=O)N[C@@H]2C(=O)N3[C@@H]2SC(C)(C)[C@@H]3C(=O)O)c2ccccc2)C(=O)C1=O [PIPERACILLIN] | 1 (≈ 1.93 µM)
